According to patent US20100209345A1, “Fluorinated Ligands for Targeting Peripheral Benzodiazepine Receptors” (Australian Nuclear Science & Technology Organisation, priority 2006, published 2010):

Columns and labels:
[1] = Biodistribution of 18F-labelled tracers in rats; assay type: in vivo
Protocol: [^18F]Fluoride, in the form of H^18F, was produced by the ^18O(p,n)^18F nuclear reaction by bombardment of ^18O-enriched water target. The aqueous [^18F]fluoride solution was added to a 2.5-mL wheaton vial containing dry acetonitrile (1 mL), Kryptofix 2.2.2 (5 mg, 13.3 μmol) and potassium carbonate (2 mg, 14.5 μmol). The solvent was evaporated under a stream of nitrogen at 90° C. with a reducing vacuum. This azeotropic drying was repeated twice by further addition of acetonitrile (2×1 mL). The tosylate precursor 2-(2-(4-(2-tosylethoxy)phenyl)-6-chloroimidazo[1,2-a]pyridin-3-yl)-N,N-diethylacetamide (2 mg, 3.6 μmol) was dissolved in acetonitrile (1 ml) and added to the dried K222.K2CO3.KF complex. Stirring and heating at 90° C. continued for 10 to 15 mins before the reaction mixture was diluted with mobile phase and purified by reverse phase HPLC on an Alltech Alltima, C18, 10μ, 250×22 mm column eluting at 10 mLs/min with 45% acetonitrile, 55% water with 0.1% TFA.
(§1) The biodistribution of PBR132* was undertaken in SD rats and analysis up to 4 h p.i. in the brain and peripheral tissues was performed. The specificity and selectivity of the tracer were assessed by pre-treatment with PBR and Central benzodiazepine receptor (CBR) specific ligands (1 mg/kg) 5 min prior to injection of PBR132*.
(§2) The biodistribution of PBR 147* was performed in SD rats and brain and peripheral tissues were analysised at 15, 30 min, 1, and 4 h p.i. The specificity and selectivity of the tracer was assessed by pre-treatment of the animals with the PBR ligands PK11195 and Ro 5-4864 and with Flumazenil for CBR at 1 mg/kg 5 min prior to injection of PBR 147*
(§3) The biodistribution of PBR102* and PBR111* were performed in SD rats and brain and peripheral tissues analysed at 15, 30 min, 1, and 4 h p.i. The specificity and selectivity of the tracers were assessed by pre-treatment with the PBR ligands PK11195 and Ro 5-4864 and with Flumazenil for CBR at 1 mg/kg 5 min prior to injection of the corresponding tracers.
(§4) The specificity and selectivity of the tracers were assessed by pre-treatment with the PBR ligands PK11195 and Ro 5-4864 and with Flumazenil for CBR at 1 mg/kg 5 min prior to injection of the corresponding tracers.

[2] = molecular target: T1, peripheral benzodiazepine receptors (Rattus norvegicus, UniProt P16257); test: In vivo blocking / competition of tracer uptake by pre-treatment with PBR and CBR ligands; details: rats; for Tracer uptake after pre-treatment with PK 11195 / Tracer uptake after pre-treatment with Ro 5-4864: PBR-expressing tissues (brain/peripheral organs, adrenals apart); for Tracer uptake after pre-treatment with flumazenil (central benzodiazepine ligand): flumazenil 1 mg/kg 5 min prior to tracer, brain or peripheral organs
T1 construct: high uptake in the tissues which have known PBR sites; from tissue; host or cells: organs of living SD rats (brain and peripheral tissues), in vivo
Protocol: The criteria for significance were **p<0.01 (highly significant) and *p<0.05 (significant). No stars implies not statistical difference from normals or controls.
as §1, §2, §3, §4

[3] = tested on: central benzodiazepine receptors; test: In vitro binding, [3H]-Flumazenil, brain cortex membrane preparation; details: @ 10^−5M, [3H]-Flumazenil
Protocol: Non-specific binding was determined with Flumazenil (20 μM). In both cases, incubations were terminated by rapid filtration through Whatman GF/B glass fibre. Filters were immediately washed 3 times with 5 mL ice-cold 50 mM Tris/HCl at pH 7.4. Filters were counted in a β-scintillation counter (Packard) to measure the amount of bound radioactivity. The IC50 of the compounds for the peripheral benzodiazepine binding site and the central benzodiazepine receptor were calculated using Kell 6 software.

[4] = SD rats, 15 min, decay correction not stated
[5] = SD rats, 4 hours, decay correction not stated
[6] = rats, 15 min, corrected for decay of 18F
[7] = rats, 30 min, corrected for decay of 18F
[8] = rats, 60 min, corrected for decay of 18F
[9] = rats, 4 hours, corrected for decay of 18F

## CCN(CC)C(=O)Cc1c(-c2ccc(C(C)(C)C)cc2)nc2ccc([18F])nn12 [PBR132*, 2-(2-(4-tert-butylphenyl)-6-fluoroimidazo[1,2-b]pyridazin-3-yl)-N,N-diethylacetamide]
[1]; [4]
  Biodistribution: Bone: 1 % ID/g
  Biodistribution: Heart: 8 % ID/g
  Biodistribution: Kidney: 4 % ID/g
  Biodistribution: Lungs: 16 % ID/g
  Biodistribution: Olfactory bulbs: 0.63 % ID/g
[1]; SD rats, 30 min, decay correction not stated
  Biodistribution: Adrenals: 13 % ID/g
[1]; [5]
  Biodistribution: Bone: 3.3 % ID/g
  Biodistribution: Heart: less than 2.3 % ID/g
  Biodistribution: Kidney: less than 2.3 % ID/g
  Biodistribution: Lungs: less than 2.3 % ID/g
  Biodistribution: Olfactory bulbs: 0.25 % ID/g
[1]; SD rats, throughout 15 min to 4 h
  Blood activity level / concentration in the blood over the 4 h study period: low
[1]; [6]
  Biodistribution: Adrenals: 10.03 ± 1.11 % ID/g
  Biodistribution: Bladder: 0.73 ± 0.33 % ID/g
  Biodistribution: Blood: 0.41 ± 0.05 % ID/g
  Biodistribution: Bone: 1.04 ± 0.14 % ID/g
  Biodistribution: Brain: 0.35 ± 0.03 % ID/g
  Biodistribution: GIT: 1.08 ± 0.08 % ID/g
  Biodistribution: Heart: 8.13 ± 0.77 % ID/g
  Biodistribution: Kidney: 4.10 ± 0.28 % ID/g
  Biodistribution: Liver: 1.22 ± 0.17 % ID/g
  Biodistribution: Lungs: 16.09 ± 2.56 % ID/g
  Biodistribution: Muscle: 0.89 ± 0.28 % ID/g
  Biodistribution: Olfactory bulbs: 0.63 ± 0.09 % ID/g
  Biodistribution: Pancreas: 2.01 ± 0.26 % ID/g
  Biodistribution: Skin: 0.60 ± 0.09 % ID/g
  Biodistribution: Spleen: 5.85 ± 0.93 % ID/g
  Biodistribution: Stomach: 0.58 ± 0.19 % ID/g
  Biodistribution: Testes: 0.31 ± 0.03 % ID/g
  Biodistribution: Thymus: 0.78 ± 0.20 % ID/g
  Biodistribution: Thyroid: 8.87 ± 1.06 % ID/g
[1]; [7]
  Biodistribution: Adrenals: 13.21 ± 1.16 % ID/g
  Biodistribution: Bladder: 0.87 ± 0.36 % ID/g
  Biodistribution: Blood: 0.32 ± 0.05 % ID/g
  Biodistribution: Bone: 1.25 ± 0.18 % ID/g
  Biodistribution: Brain: 0.23 ± 0.02 % ID/g
  Biodistribution: GIT: 1.36 ± 0.22 % ID/g
  Biodistribution: Heart: 8.34 ± 0.86 % ID/g
  Biodistribution: Kidney: 3.94 ± 0.54 % ID/g
  Biodistribution: Liver: 1.18 ± 0.33 % ID/g
  Biodistribution: Lungs: 11.58 ± 2.11 % ID/g
  Biodistribution: Muscle: 0.91 ± 0.10 % ID/g
  Biodistribution: Olfactory bulbs: 0.46 ± 0.11 % ID/g
  Biodistribution: Pancreas: 1.97 ± 0.32 % ID/g
  Biodistribution: Skin: 0.65 ± 0.08 % ID/g
  Biodistribution: Spleen: 6.89 ± 0.80 % ID/g
  Biodistribution: Stomach: 0.64 ± 0.11 % ID/g
  Biodistribution: Testes: 0.31 ± 0.03 % ID/g
  Biodistribution: Thymus: 0.80 ± 0.06 % ID/g
  Biodistribution: Thyroid: 9.15 ± 0.87 % ID/g
[1]; [8]
  Biodistribution: Adrenals: 11.24 ± 2.03 % ID/g
  Biodistribution: Bladder: 0.84 ± 0.08 % ID/g
  Biodistribution: Blood: 0.17 ± 0.00 % ID/g
  Biodistribution: Bone: 2.06 ± 0.10 % ID/g
  Biodistribution: Brain: 0.12 ± 0.00 % ID/g
  Biodistribution: GIT: 1.78 ± 0.04 % ID/g
  Biodistribution: Heart: 6.87 ± 0.53 % ID/g
  Biodistribution: Kidney: 3.24 ± 0.15 % ID/g
  Biodistribution: Liver: 0.67 ± 0.06 % ID/g
  Biodistribution: Lungs: 6.40 ± 0.50 % ID/g
  Biodistribution: Muscle: 0.50 ± 0.03 % ID/g
  Biodistribution: Olfactory bulbs: 0.36 ± 0.05 % ID/g
  Biodistribution: Pancreas: 1.20 ± 0.19 % ID/g
  Biodistribution: Skin: 0.64 ± 0.07 % ID/g
  Biodistribution: Spleen: 5.56 ± 0.67 % ID/g
  Biodistribution: Stomach: 0.47 ± 0.05 % ID/g
  Biodistribution: Testes: 0.32 ± 0.01 % ID/g
  Biodistribution: Thymus: 0.88 ± 0.07 % ID/g
  Biodistribution: Thyroid: 18.30 ± 1.00 % ID/g
[1]; [9]
  Biodistribution: Adrenals: 13.51 ± 0.61 % ID/g
  Biodistribution: Bladder: 0.99 ± 0.30 % ID/g
  Biodistribution: Blood: 0.07 ± 0.00 % ID/g
  Biodistribution: Bone: 3.28 ± 0.65 % ID/g
  Biodistribution: Brain: 0.07 ± 0.00 % ID/g
  Biodistribution: GIT: 2.93 ± 0.39 % ID/g
  Biodistribution: Heart: 4.71 ± 0.31 % ID/g
  Biodistribution: Kidney: 2.31 ± 0.17 % ID/g
  Biodistribution: Liver: 0.31 ± 0.03 % ID/g
  Biodistribution: Lungs: 2.42 ± 0.25 % ID/g
  Biodistribution: Muscle: 0.24 ± 0.06 % ID/g
  Biodistribution: Olfactory bulbs: 0.25 ± 0.03 % ID/g
  Biodistribution: Pancreas: 0.57 ± 0.10 % ID/g
  Biodistribution: Skin: 0.67 ± 0.17 % ID/g
  Biodistribution: Spleen: 2.64 ± 0.36 % ID/g
  Biodistribution: Stomach: 0.72 ± 0.24 % ID/g
  Biodistribution: Testes: 0.42 ± 0.06 % ID/g
  Biodistribution: Thymus: 1.02 ± 0.06 % ID/g
  Biodistribution: Thyroid: 7.41 ± 0.68 % ID/g
[1]; rats, in vivo biodistribution
  Uptake in tissues which have known PBR sites: high uptake
[2]; PK 11195 1 mg/kg 5 min prior to tracer
  Tracer uptake after pre-treatment with PK 11195: decreased
[2]; PK 11195 1 mg/kg 5 min prior to tracer, listed as [^18F]PBR132
  Tracer uptake after pre-treatment with PK 11195: blocking effect
[2]; PK 11195 1 mg/kg 5 min prior to tracer, adrenals
  Tracer uptake in the adrenals after pre-treatment with PK 11195: increase
[2]; Ro 5-4864 1 mg/kg 5 min prior to tracer
  Tracer uptake after pre-treatment with Ro 5-4864: decreased
[2]; Ro 5-4864 1 mg/kg 5 min prior to tracer, listed as [^18F]PBR132
  Tracer uptake after pre-treatment with Ro 5-4864: blocking effect
[2]; Ro 5-4864 1 mg/kg 5 min prior to tracer, adrenals
  Tracer uptake in the adrenals after pre-treatment with Ro 5-4864: increase
[2]
  Tracer uptake after pre-treatment with flumazenil (central benzodiazepine ligand): no effect
[2]; listed as [^18F]PBR132
  Tracer uptake after pre-treatment with flumazenil (central benzodiazepine ligand): does not reduce
[2]; non-radioactive analogue 1 mg/kg, PBR-expressing tissues
  Tracer uptake after pre-treatment with the non-radioactive analogue: blocking effect

## CCN(CC)C(=O)Cc1c(-c2ccc(OCCCF)cc2)nn2c(C)cc(C)nc12 [PBR 146, 2-(2-(4-(3-fluoropropoxy)phenyl)-5,7-dimethylpyrazolo[1,5-a]pyrimidin-3-yl)-N,N-diethylacetamide]
[3]
  CBR, % @ 10^−5M: 50% @ 10^−5M
LogP HPLC
  chromatographic logP: 3.16 ± 0.1
